Assay results published in PMC13372822 (The EMBO Journal, 2026).
Numbering of substitutions follows the chain as printed.

Assays:
[1] = molecular target: T1, SUCR1 mutants (variant named in the endpoint) (Homo sapiens, UniProt Q9BXA5, I157M); test: Calcium mobilization assay, SUCR1 mutants in HEK293 stably expressing Gα16; format: cell-based;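 as to Emax: percent of the maximal response to succinate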
T1 construct: The full-length human SUCR1 and mutations were fused after the HA signal peptide and Flag tag; HA signal peptide (N); Flag (N); expressed in transfected cells; host or cells: HEK293 stably expressing Gα16 (pcDNA6.0, transient electroporation)
T1 sequence (Q9BXA5 1-334 I157M): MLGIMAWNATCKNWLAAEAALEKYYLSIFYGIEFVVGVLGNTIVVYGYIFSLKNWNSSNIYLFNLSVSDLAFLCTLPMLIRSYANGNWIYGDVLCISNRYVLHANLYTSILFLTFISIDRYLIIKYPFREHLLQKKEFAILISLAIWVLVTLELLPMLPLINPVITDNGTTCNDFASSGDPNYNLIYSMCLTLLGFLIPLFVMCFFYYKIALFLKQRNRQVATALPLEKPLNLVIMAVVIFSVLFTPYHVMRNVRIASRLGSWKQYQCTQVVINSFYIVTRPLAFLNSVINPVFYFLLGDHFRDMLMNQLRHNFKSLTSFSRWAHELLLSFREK
Experimental: (§6) The full-length human SUCR1 and mutations were fused after the HA signal peptide and Flag tag. The constructs were cloned into pcDNA6.0 vector for HEK293 system.
(§7) HEK293 cells were obtained from ATCC (Manassas, VA, USA) and cultured in DMEM supplemented with 10% (v/v) FBS, 100 mg/L penicillin, and 100 mg/L streptomycin in 5% CO2 at 37 °C. For transient transfection, ~2.5 × 10^6 cells were mixed with 2 µg plasmids in 200 µL transfection buffer, and electroporation was carried out with a Scientz-2C electroporation apparatus (Scientz Biotech, Ningbo, China). The experiments were carried out 24 h after transfection. HEK293 cell lines stably expressing Gα16 were constructed by our laboratory.
(§8) For OXGR1, plasmids were transfected into HEK293 (other receptors were transfected into HEK293 stably expressing Gα16) and seeded at a density of 4 × 10^4 per well into 96-well culture plates and incubated for 24 h at 37 °C in 5% CO2. The next day, Cells were incubated with 2 μM/L Fluo-4 AM in HBSS supplemented with 5.6 mM/L D-glucose and 250 μM/L sulfinpyrazone at 37 °C for 45 min. […] Three independent measurements were repeated, i.e., three different transfections, with three technical replicates performed for each experiment. EC50 and Emax values for each curve were calculated by Prism 8.0 software (GraphPad Software).

SUCR1 = molecular target: T2, SUCR1 (Homo sapiens, UniProt Q9BXA5); test: Calcium mobilization assay, wild-type SUCR1 in HEK293 stably expressing Gα16; format: cell-based; conditions: for activation of SUCR1: in words;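 as to Emax: percent of the maximal response to succinate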
T2 construct: The full-length human SUCR1 and mutations were fused after the HA signal peptide and Flag tag; HA signal peptide (N); Flag (N); expressed in transfected cells; host or cells: HEK293 stably expressing Gα16 (pcDNA6.0, transient electroporation)
T2 sequence (Q9BXA5 1-334): T1 sequence (Q9BXA5 1-334 I157M) with M157I
Experimental: as §6, §7, §8

OXGR1 [2] = molecular target: T3, OXGR1 (Homo sapiens, UniProt Q96P68, L299P); test: Immunofluorescence assay of OXGR1 internalization; format: cell-based; conditions: 300 μM AKG, 0 or 30 min at 37°C
T3 construct: The full-length human OXGR1 and mutations were fused after the HA signal peptide and Flag tag; HA; expressed in transfected cells; host or cells: HEK293, transient
Experimental: (§1) Figure. R2 | Effect of L2997x50P mutant on activation and internalization of OXGR1. […]
(§2) responses. Responses were normalized to 100% for wild-type. Data are mean ± S.E.M. from three independent experiments (n = 3), with three technical replicates performed for each […]
(§3) experiment. […] HEK293 cells transiently […]
(§4) transfected with HA-tagged OXGR1 -WT or L299 7x50P mutant, were incubated with 300 μM […]
(§5) OXGR1 were stained with anti-HA (green). Cell nuclei were (1 picture or pasted object on this page, not shown here)

OXGR1 [3] = molecular target: T4, OXGR1 (Homo sapiens, UniProt Q96P68); test: cAMP assay, Gs pathway (OXGR1-Gs-cAMP-Assay); format: cell-based; design: The full-length human OXGR1 and mutations were fused after the HA signal peptide and Flag tag; HA signal peptide (N); Flag (N); expressed in transfected cells; host or cells: HEK293 (pcDNA3.0, transient electroporation); conditions: OXGR1 WT
Experimental: In brief, cells expressing OXGR1 were seeded in a plate at a density of 1 × 10^6 cells/well and cultured overnight. After 24 h culture, cells were harvested and re-suspended in DMEM containing 500 µM IBMX at a density of 2 × 10^5 cells/mL. Then, cells were plated onto 384-well assay plates at a density of 1000 cells/5 µL/well. Another 5 µL buffer containing compounds at various concentrations was added to the cells, and the incubation lasted for 30 min at 37 °C. Intracellular cAMP level was tested by a LANCE Ultra cAMP kit (PerkinElmer, TRF0264) and EnVision multiplate reader according to the manufacturer’s instructions.

OXGR1 [4] = molecular target: T4, OXGR1; test: Immunofluorescence assay of OXGR1 internalization; format: cell-based; design: The full-length human OXGR1 and mutations were fused after the HA signal peptide and Flag tag; HA; expressed in transfected cells; host or cells: HEK293, transient; conditions: 300 μM AKG, 0 or 30 min at 37°C
Experimental: as §1, §2, §3, §4, §5

[5] = tested on: SUCR1 mutants (variant named in the endpoint); test: Calcium mobilization assay, SUCR1 mutants in HEK293 stably expressing Gα16; format: cell-based, human; conditions: in words;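 as to Emax: percent of the maximal response to succinate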
Experimental: as §6, §7, §8

HCAR2 = molecular target: T5, HCAR2 (Homo sapiens, UniProt Q8TDS4); test: Calcium mobilization assay, HCAR2 in HEK293 stably expressing Gα16; format: cell-based; conditions: in words; related receptor
T5 construct: expressed in transfected cells; host or cells: HEK293 stably expressing Gα16
Experimental: as §7, §8

HCAR1 = molecular target: T6, HCAR1 (Homo sapiens, UniProt Q9BXC0); test: Calcium mobilization assay, HCAR1 in HEK293 stably expressing Gα16; format: cell-based; conditions: in words; related receptor
T6 construct: expressed in transfected cells; host or cells: HEK293 stably expressing Gα16
Experimental: as §7, §8

[6] = molecular target: T7, SUCR1 mutants (variant named in the endpoint) (Homo sapiens, UniProt Q9BXA5, F285A/L102F/Y248F); test: Calcium mobilization assay, SUCR1 mutants in HEK293 stably expressing Gα16; format: cell-based; conditions: SUCR1 L102F-F285A-Y248F;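 as to Emax: percent of the maximal response to succinate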
T7 construct: The full-length human SUCR1 and mutations were fused after the HA signal peptide and Flag tag; HA signal peptide (N); Flag (N); expressed in transfected cells; host or cells: HEK293 stably expressing Gα16 (pcDNA6.0, transient electroporation)
T7 sequence (Q9BXA5 1-334 L102F/Y248F/F285A): T1 sequence (Q9BXA5 1-334 I157M) with L102F, M157I, Y248F, F285A
Experimental: as §6, §7, §8

T6 sequence (Q9BXC0 whole entry, species assumed): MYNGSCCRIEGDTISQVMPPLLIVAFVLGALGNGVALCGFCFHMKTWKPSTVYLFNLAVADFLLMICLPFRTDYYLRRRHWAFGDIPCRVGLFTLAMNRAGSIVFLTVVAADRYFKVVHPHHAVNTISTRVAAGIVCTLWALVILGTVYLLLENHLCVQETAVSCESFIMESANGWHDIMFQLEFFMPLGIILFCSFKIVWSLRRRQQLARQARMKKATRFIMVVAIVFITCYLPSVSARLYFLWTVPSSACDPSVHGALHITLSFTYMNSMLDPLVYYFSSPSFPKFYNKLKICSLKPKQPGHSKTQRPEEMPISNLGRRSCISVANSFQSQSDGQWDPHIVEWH
T5 sequence (Q8TDS4 whole entry): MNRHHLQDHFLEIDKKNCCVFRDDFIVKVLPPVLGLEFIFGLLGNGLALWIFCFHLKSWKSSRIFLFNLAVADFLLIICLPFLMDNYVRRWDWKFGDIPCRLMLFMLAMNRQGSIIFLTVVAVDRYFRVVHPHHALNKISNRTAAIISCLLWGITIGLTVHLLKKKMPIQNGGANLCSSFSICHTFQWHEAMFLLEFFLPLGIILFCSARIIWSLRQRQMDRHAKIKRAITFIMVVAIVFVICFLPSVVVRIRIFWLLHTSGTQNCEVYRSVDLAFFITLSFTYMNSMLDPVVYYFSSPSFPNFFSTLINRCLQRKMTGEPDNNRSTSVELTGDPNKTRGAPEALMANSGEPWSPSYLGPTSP

| Structure (SMILES) | Emax ([1]; HEK293) | Emax (SUCR1; HEK293) | activation of SUCR1 (SUCR1) | internalization of OXGR1 L299P mutant (OXGR1 [2]) | activation of Gs signaling (OXGR1 [3]) | internalization of WT-OXGR1 (OXGR1 [4]) | Emax ([1]; HEK293, SUCR1 I157M, Emax relative to the SUC) | ITA activation of SUCR1-L102F, SUCR1-L102F-F285A, SUCR1-L102F-F175L [5] | activation of HCAR2 (HCAR2) | activation of HCAR1 (HCAR1) | EC50 [6] |
| --- | --- | --- | --- | --- | --- | --- | --- | --- | --- | --- | --- |
| O=C(O)CCC(=O)C(=O)O [AKG, α-ketoglutarate] | 0.43 ± 0.8% | 3.5 ± 3% | no cross-reactivity | remains at the plasma membrane | no detectable activation | internalizes | – | – | – | – | – |
| C=C(CC(=O)O)C(=O)O [ITA, itaconate] | – | – | only minimal activation | – | no detectable activation | – | -0.44 ± 1% | further enhanced ITA activation in both potency and efficiency | no detectable activation | no detectable activation | – |
| O=C(O)CCC(=O)O [SUC, succinate] | – | – | – | – | – | – | – | – | – | – | 2200 ± 220 µM |
